Test results as given in ChEMBL document CHEMBL2203118, “Ethyl 2,4,6-trihydroxybenzoate is an agonistic ligand for liver X receptor that induces cholesterol efflux from macrophages without affecting lipid accumulation in HepG2 cells” (Bioorg Med Chem Lett, 2012).

Key:
Settings in all cases: hepg2, 1 µM
HepG2 [1] = experiment: Upregulation of SREBP-1 gene expression in human HepG2 cells at 1 uM by immunoblot analysis; type: ADME, cell-based
HepG2 [2] = experiment: Upregulation of FAS gene expression in human HepG2 cells at 1 uM by qPCR analysis; type: ADME, cell-based
HepG2 [3] = experiment: Induction of lipid accumulation in human HepG2 cells assessed as increase in cellular triglyceride level at 1 uM by Oil Red O staining relative to control; type: cell-based
HepG2 [4] = experiment: Upregulation of SCD1 gene expression in human HepG2 cells at 1 uM by qPCR analysis; type: ADME, cell-based
HepG2 [5] = experiment: Upregulation of SREBP-1 gene expression in human HepG2 cells at 1 uM by qPCR analysis; type: ADME, cell-based
HepG2 [6] = experiment: Induction of lipid accumulation in human HepG2 cells assessed as cellular triglyceride concentration at 1 uM; type: cell-based

Measured: Activity

O=S(=O)(c1ccccc1)N(CC(F)(F)F)c1ccc(C(O)(C(F)(F)F)C(F)(F)F)cc1 [T091317]
Toxic: all assays above
